Results from the supplement of paper PMC10307832.

Tests used:
Assay in all cases: relative viability (nuclei count vs DMSO), 5 days (fraction); higher = more cells survive
NVP-TAE684 + Bortezomib = compound: COc1cc(N2CCC(N3CCN(C)CC3)CC2)ccc1Nc1ncc(Cl)c(Nc2ccccc2S(=O)(=O)C(C)C)n1 [NVP-TAE684] + CC(C)C[C@H](NC(=O)[C@H](Cc1ccccc1)NC(=O)c1cnccn1)B(O)O [Bortezomib] (partner 0.002 µM)
How it was run: (§1)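 Each reported value is a median over duplicate plates. It expresses relative viability: treated-well nuclei count divided by vehicle-well nuclei count. Lung cancer cell lines in 1536-well plates were dosed by pin tool a day after seeding, alone with one drug or with a fixed anchor-drug dose plus five library-drug doses (not always all listed) in √10 steps, and nuclei were counted after 5 days.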

NVP-TAE684 + Lapatinib = compound: COc1cc(N2CCC(N3CCN(C)CC3)CC2)ccc1Nc1ncc(Cl)c(Nc2ccccc2S(=O)(=O)C(C)C)n1 [NVP-TAE684] + CS(=O)(=O)CCNCc1ccc(-c2ccc3ncnc(Nc4ccc(OCc5cccc(F)c5)c(Cl)c4)c3c2)o1 [Lapatinib] (partner 2 µM)
How it was run: as §1

[1] = compound: C1=CC=C2C(=C1)N=C(S2)C(C#N)C3=NC(=NC=C3)NCCC4=CN=CC=C4 + Nc1ncn([C@H]2C[C@H](O)[C@@H](CO)O2)c(=O)n1 [Decitabine] (partner 2 µM)
How it was run: as §1

CUDC-101 + Vorinostat = compound: C#Cc1cccc(Nc2ncnc3cc(OC)c(OCCCCCCC(=O)NO)cc23)c1 [CUDC-101] + O=C(CCCCCCC(=O)Nc1ccccc1)NO [Vorinostat] (partner 1 µM)
How it was run: as §1

NVP-TAE684 + Palbociclib = compound: COc1cc(N2CCC(N3CCN(C)CC3)CC2)ccc1Nc1ncc(Cl)c(Nc2ccccc2S(=O)(=O)C(C)C)n1 [NVP-TAE684] + CC(=O)c1c(C)c2cnc(Nc3ccc(N4CCNCC4)cn3)nc2n(C2CCCC2)c1=O [Palbociclib] (partner 0.5 µM)
How it was run: as §1

Cell Line	relative viability (NVP-TAE684 + Bortezomib; first compound 0.2 µM)	relative viability (NVP-TAE684 + Bortezomib; first compound 0.6325 µM)	relative viability (NVP-TAE684 + Bortezomib; first compound 2 µM)	relative viability (NVP-TAE684 + Lapatinib; first compound 0.2 µM)	relative viability (NVP-TAE684 + Lapatinib; first compound 0.6325 µM)	relative viability (NVP-TAE684 + Lapatinib; first compound 2 µM)	relative viability ([1]; first compound 0.005 µM)	relative viability ([1]; first compound 0.01581 µM)	relative viability ([1]; first compound 0.05 µM)	relative viability ([1]; first compound 0.1581 µM)	relative viability ([1]; first compound 0.5 µM)	relative viability (CUDC-101 + Vorinostat; first compound 0.01 µM)	relative viability (CUDC-101 + Vorinostat; first compound 0.03162 µM)	relative viability (CUDC-101 + Vorinostat; first compound 0.1 µM)	relative viability (CUDC-101 + Vorinostat; first compound 0.3162 µM)	relative viability (CUDC-101 + Vorinostat; first compound 1 µM)	relative viability (NVP-TAE684 + Palbociclib; first compound 0.2 µM)	relative viability (NVP-TAE684 + Palbociclib; first compound 0.6325 µM)	relative viability (NVP-TAE684 + Palbociclib; first compound 2 µM)
HOP-62	0.678	0.725	0.758	0.882	1	1.08	0.219	0.184	0.263	0.234	0.248	0.716	0.57	0.665	0.524	0.261	0.54	0.501	0.491
LC-2-ad	1.13	0.9	0.605	0.988	0.921	0.455	0.698	0.819	0.818	0.827	0.726	0.721	0.716	0.703	0.658	0.538	0.43	0.482	0.32
LCLC-97TM1	0.711	0.216	0.194	1.51	0.547	0.287	0.192	0.215	0.293	0.237	0.222	0.815	0.778	0.663	0.56	0.195	0.251	0.249	0.0774
LOU-NH91	0.548	0.492	0.518	0.781	0.648	0.516	0.85	0.822	0.765	0.818	0.8	1.04	0.842	0.833	0.703	0.43	0.548	0.504	0.502
LU99A	1.29	1.1	0.653	–	0.974	0.543	0.693	0.966	–	1	0.817	0.529	0.477	0.452	0.389	0.219	0.373	0.429	0.254
LXF-289	1.06	1.03	1.02	0.946	–	0.861	0.345	0.419	0.4	0.405	0.336	0.755	0.757	0.71	0.594	0.447	0.56	0.618	0.643
NCI-H23	0.867	0.993	0.54	1.15	1.05	0.512	–	0.306	0.329	0.323	0.338	0.71	0.731	0.683	0.661	0.335	0.439	0.5	0.241
NCI-H322M	1.23	1.16	0.924	0.637	0.609	0.404	0.579	0.773	0.775	0.711	0.736	0.858	0.81	0.799	0.596	0.494	0.425	0.43	0.375
NCI-H460	1.77	1.2	0.593	0.903	1.29	0.441	–	0.612	0.529	0.592	0.464	0.679	0.73	0.695	0.597	0.409	0.183	0.168	0.098
NCI-H520	–	0.672	0.321	0.761	0.884	0.454	0.46	0.449	0.482	0.616	0.513	0.769	0.686	0.488	0.397	0.32	0.227	0.267	0.152
NCI-H647	1.38	1.11	0.77	1.34	1.02	0.686	0.356	0.442	0.33	0.353	0.284	0.479	0.465	0.664	0.427	0.262	0.352	0.337	0.223
NCI-H650	0.784	0.562	0.614	–	0.776	0.706	0.316	0.356	0.319	0.338	0.325	0.547	0.517	0.414	0.456	0.51	0.313	0.319	0.318
NCI-H661	0.791	0.88	0.842	0.518	0.51	0.493	0.467	0.52	0.529	0.622	0.589	0.783	0.764	0.748	0.534	0.362	0.423	0.378	0.424
NCI-H727	0.684	0.887	0.506	0.917	0.695	0.346	0.992	0.879	0.983	1	0.786	1.28	1.15	0.958	1.04	0.642	0.638	0.623	0.516
NCI-H838	0.86	0.902	0.399	1.12	0.758	0.287	0.435	0.461	0.425	0.47	0.445	0.719	0.741	0.708	0.555	0.372	0.199	0.197	0.141
NCI-H1355	1.23	1.17	0.859	1.18	0.855	0.636	0.367	0.376	0.381	0.358	0.366	0.693	0.663	0.636	0.62	0.497	0.366	0.368	0.269
NCI-H1437	0.452	0.487	0.322	0.874	0.729	0.418	0.484	0.6	0.508	0.602	0.548	0.864	0.857	0.814	0.808	0.495	0.321	0.291	0.231

Cell Line	relative viability (NVP-TAE684 + Bortezomib; first compound 0.2 µM)	relative viability (NVP-TAE684 + Bortezomib; first compound 0.6325 µM)	relative viability (NVP-TAE684 + Bortezomib; first compound 2 µM)	relative viability (NVP-TAE684 + Lapatinib; first compound 0.2 µM)	relative viability (NVP-TAE684 + Lapatinib; first compound 0.6325 µM)	relative viability (NVP-TAE684 + Lapatinib; first compound 2 µM)	relative viability ([1]; first compound 0.005 µM)	relative viability ([1]; first compound 0.01581 µM)	relative viability ([1]; first compound 0.05 µM)	relative viability ([1]; first compound 0.1581 µM)	relative viability ([1]; first compound 0.5 µM)	relative viability (CUDC-101 + Vorinostat; first compound 0.01 µM)	relative viability (CUDC-101 + Vorinostat; first compound 0.03162 µM)	relative viability (CUDC-101 + Vorinostat; first compound 0.1 µM)	relative viability (CUDC-101 + Vorinostat; first compound 0.3162 µM)	relative viability (CUDC-101 + Vorinostat; first compound 1 µM)	relative viability (NVP-TAE684 + Palbociclib; first compound 0.2 µM)	relative viability (NVP-TAE684 + Palbociclib; first compound 0.6325 µM)	relative viability (NVP-TAE684 + Palbociclib; first compound 2 µM)
NCI-H1650	0.194	0.183	0.173	0.958	0.684	0.347	0.335	0.333	0.496	0.432	0.407	0.532	0.352	0.517	0.615	0.41	0.297	0.299	0.211
NCI-H1651	0.987	0.98	0.93	0.998	0.834	0.563	0.546	0.557	0.684	0.711	0.603	0.539	0.545	0.578	0.51	0.497	0.506	0.572	0.468
NCI-H1666	0.849	0.71	0.4	0.588	0.447	0.283	0.72	0.696	0.8	0.738	0.798	1.1	1.01	0.951	1.06	1.06	0.642	0.713	0.617
NCI-H1734	0.986	0.982	0.601	1.26	0.983	0.698	0.453	0.49	0.522	0.495	0.488	0.882	0.76	0.832	0.595	0.369	0.375	0.324	0.316
NCI-H1755	–	0.949	0.838	0.996	1.06	0.891	0.673	0.789	0.683	0.75	0.7	0.759	0.741	0.73	0.67	0.637	0.441	0.472	0.401
NCI-H1915	1.09	1.03	1.05	1.02	1.01	0.948	–	0.259	0.239	0.264	0.27	0.527	0.511	0.481	0.358	0.374	0.558	0.525	0.491
NCI-H1975	0.359	0.362	0.21	0.734	0.791	0.318	0.436	0.341	0.334	0.432	0.434	0.687	0.712	0.781	0.75	0.642	0.591	0.589	0.37
NCI-H1993	–	1.09	0.806	–	0.77	0.7	0.663	0.641	0.607	0.699	0.59	0.748	1.01	0.688	0.666	0.426	0.437	0.614	0.475
NCI-H2009	0.977	0.897	0.645	0.938	0.888	0.731	0.37	0.386	0.379	0.427	0.397	0.766	0.639	0.764	0.705	0.506	0.2	0.183	0.203
NCI-H2023	–	0.944	0.268	1.1	0.622	0.193	0.245	0.236	0.209	0.245	0.243	0.781	0.654	0.716	0.703	0.435	0.291	0.358	0.116
NCI-H2085	0.95	0.926	0.955	0.788	0.632	0.648	0.518	0.555	0.585	0.502	0.533	0.772	0.771	0.814	0.801	0.628	0.463	0.512	0.478
NCI-H2087	0.998	0.789	0.886	1.36	1.02	0.986	0.255	0.266	0.345	0.367	0.282	0.928	0.886	0.684	0.528	0.38	0.206	0.22	0.248
NCI-H2126	1.09	1.07	0.958	0.755	0.719	0.55	0.495	0.579	0.565	0.546	0.577	0.862	0.777	0.713	0.704	0.452	0.34	0.329	0.327
NCI-H2347	1.41	0.822	1.02	1	0.903	0.955	0.638	0.634	0.556	0.683	0.654	0.741	0.583	0.631	0.415	0.46	0.449	0.453	0.359
NCI-H2405	0.941	0.986	0.82	1.26	0.815	0.55	0.658	0.771	0.737	0.689	0.725	1.1	1.04	0.968	0.953	0.568	0.524	0.525	0.337
NCI-H3122	0.763	0.218	0.162	0.369	0.213	0.18	0.333	0.394	0.492	0.577	0.441	1.04	0.912	0.895	1.01	0.685	0.103	0.0833	0.0801
